Literature values as cited in patent US20230019058A1, “METHOD FOR THE TREATMENT OF VIRAL INFECTIONS” (Softhale NV, priority 2020, published 2023).

Columns and labels:
[1] = test system: respiratory syncytial virus; details: reported by S. Matsuyama et al.; cited from earlier work
[2] = test system: human coronavirus; details: cultured cells; reported by S. Matsuyama et al.; cited from earlier work
[3] = test system: influenza virus; details: reported by S. Matsuyama et al.; cited from earlier work
[4] = test system: SARS-CoV-2; details: reported by S. Matsuyama et al., read-out: effective concentration to block SARS-CoV-2 replication (EC90); cited from earlier work

Structure (SMILES): CC(C)C(=O)OCC(=O)[C@@]12O[C@H](C3CCCCC3)O[C@@H]1C[C@H]1[C@@H]3CCC4=CC(=O)C=C[C@]4(C)[C@H]3[C@@H](O)C[C@@]12C [ciclesonide, (11β, 16α)-16, 17-[[(R)-cyclohexylmethylene]bis(oxy)]-11-hydroxy-21-(2-methyl-1-oxopropoxy)-pregna-1,4-diene-3,20-dione]
- suppression of replication of respiratory syncytial virus [1]: did not suppress
- suppression of human coronavirus replication [2]: suppressed human coronavirus replication
- suppression of replication of influenza virus [3]: did not suppress
- EC90 [4]: 6.3 µM
